Test results as given in PMC5789640, “Depletion of Arabidopsis ACYL-COA-BINDING PROTEIN3 Affects Fatty Acid Composition in the Phloem” (Frontiers in Plant Science, 2018).

Biological target: T1, (His)6-AtACBP3 (Arabidopsis thaliana, UniProt Q9STX1)
T1 construct: gene ACBP3; plasmid pAT223, E. coli BL21(DE3) pLysS
T1 sequence (Q9STX1 23-362): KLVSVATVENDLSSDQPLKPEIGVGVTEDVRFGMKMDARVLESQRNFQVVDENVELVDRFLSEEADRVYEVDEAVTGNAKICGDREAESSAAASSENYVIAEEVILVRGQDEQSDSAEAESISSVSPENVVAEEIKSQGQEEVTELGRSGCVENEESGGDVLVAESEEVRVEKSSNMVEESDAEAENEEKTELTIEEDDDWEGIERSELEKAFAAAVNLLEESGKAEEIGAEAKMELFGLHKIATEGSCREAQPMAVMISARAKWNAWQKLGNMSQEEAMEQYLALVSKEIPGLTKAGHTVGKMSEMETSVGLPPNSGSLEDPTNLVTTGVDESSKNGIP
Assay: isothermal titration calorimetry
Assay type: binding
Text: isothermal titration calorimetry on (His)6-AtACBP3

Row | SMILES | Kd [µM]
1 | CC/C=C\C/C=C\C/C=C\CCCCCCCC(=O)SCCNC(=O)CCNC(=O)[C@H](O)C(C)(C)COP(=O)(O)OP(=O)(O)OC[C@H]1O[C@@H](n2cnc3c(N)ncnc32)[C@H](O)[C@@H]1OP(=O)(O)O [C18:3-CoA ester] | 8.6 ± 2
2 | CCCCCCCCCCCCCC(=O)SCCNC(=O)CCNC(=O)[C@H](O)C(C)(C)COP(=O)(O)OP(=O)(O)OC[C@H]1O[C@@H](n2cnc3c(N)ncnc32)[C@H](O)[C@@H]1OP(=O)(O)O [C14:0-CoA ester] | 4 ± 0.6
3 | CCCCCCCCCCCCCCCCC(=O)SCCNC(=O)CCNC(=O)[C@H](O)C(C)(C)COP(=O)(O)OP(=O)(O)OC[C@H]1O[C@@H](n2cnc3c(N)ncnc32)[C@H](O)[C@@H]1OP(=O)(O)O [C17:0-CoA ester] | 21 ± 4.7

The next lines start with the values.

Row | Kd [µM] | SMILES
4 | 33.1 ± 13 | CCCCCCCCCCCC(=O)SCCNC(=O)CCNC(=O)[C@H](O)C(C)(C)COP(=O)(O)OP(=O)(O)OC[C@H]1O[C@@H](n2cnc3c(N)ncnc32)[C@H](O)[C@@H]1OP(=O)(O)O [C12:0-CoA ester]
5 | 5.1 ± 1.9 | CCCCCC/C=C\CCCCCCCC(=O)SCCNC(=O)CCNC(=O)[C@H](O)C(C)(C)COP(=O)(O)OP(=O)(O)OC[C@H]1O[C@@H](n2cnc3c(N)ncnc32)[C@H](O)[C@@H]1OP(=O)(O)O [C16:1-CoA ester]
6 | 13.4 ± 1.4 | CCCCC/C=C\C/C=C\CCCCCCCC(=O)SCCNC(=O)CCNC(=O)[C@H](O)C(C)(C)COP(=O)(O)OP(=O)(O)OC[C@H]1O[C@@H](n2cnc3c(N)ncnc32)[C@H](O)[C@@H]1OP(=O)(O)O [C18:2-CoA ester]
